# Tested on: S. carnosus TM300
# Test: RNAseq differential gene expression
# Format: cell-based, Staphylococcus carnosus
# Procedure: For the RNAseq experiments, epilancin was added at sub-lethal concentration (0.5x MIC) to S. carnosus TM300 once the cultures reached an OD600 of 0.6. RNA was extracted 40 min after the treatment, using a FastRNA Pro Blue kit (MP Biomedicals). Both treated and parallel untreated samples were collected at the same time. Sequencing was performed at the Carver Biotechnology Center (UIUC). For RNAseq analysis, gene counts were read in to R (v3.1.1; [Team, 2014]), and 14/2441 genes were removed because they had fewer than 32 total counts across the six samples. edgeR’s (v3.6.7) TMM normalization ([Robinson and Oshlack, 2010]) plus negative binomial generalized log-linear model ([McCarthy et al., 2012]) was used to test for differential expression between treated and untreated groups, while accounting for pairing of U and T replicates from three different cultures. p-values were adjusted using the false discovery rate method ([Benjamini and Hochberg, 1995]).
substance,measurement,setting,value
Epilancin 15X,fold_change,"gene ileS, isoleucyl-tRNA synthetase",0.47
same,fold_change,"gene kbl, 2-amino-3-ketobutyrate coenzyme A ligase",0.46
same,fold_change,"gene mnhA, monovalent cation/H+ antiporter subunit A",0.48
same,fold_change,"gene murC, UDP-N-acetylmuramate--L-alanine ligase",0.4
same,fold_change,"gene ndk, nucleoside diphosphate kinase",0.44
same,fold_change,"gene nirC, NirC protein",0.43
same,fold_change,"gene nos, nitric oxide synthase oxygenase",0.43
same,fold_change,"gene opuAC, putative glycine betaine ABC transporter substrate-binding protein",0.43
same,fold_change,"gene pmi, mannose-6-phosphate isomerase",0.42
same,fold_change,"gene potA, putative spermidine/putrescine import ATP-binding protein PotA",0.41
same,fold_change,"gene prmC (SCA_1620), hypothetical protein",0.48
same,fold_change,"gene ptsG (glcA), glucose-specific phosphotransferase system enzyme II, factor IIA",0.42
same,fold_change,"gene purA, adenylosuccinate synthetase",0.45
same,fold_change,"gene purB, adenylosuccinate lyase",0.41
same,fold_change,"gene rex (SCA_1553), redox-sensing transcriptional repressor Rex",0.42
same,fold_change,"gene rimM, 16S rRNA-processing protein RimM",0.44
same,fold_change,"gene rplE, 50S ribosomal protein L5",0.47
same,fold_change,"gene rplF, 50S ribosomal protein L6",0.48
same,fold_change,"gene rplJ, 50S ribosomal protein L10",0.48
same,fold_change,"gene rplL, 50S ribosomal protein L7/L12",0.48
same,fold_change,"gene rplR, 50S ribosomal protein L18",0.47
same,fold_change,"gene rplX, 50S ribosomal protein L24",0.48
same,fold_change,"gene rpmD, 50S ribosomal protein L30",0.48
same,fold_change,"gene rpmG, 50S ribosomal protein L33",0.42
same,fold_change,"gene rpsE, 30S ribosomal protein S5",0.48
same,fold_change,"gene rpsF, 30S ribosomal protein S6",0.42
same,fold_change,"gene rpsH, 30S ribosomal protein S8",0.48
same,fold_change,"gene rpsR, 30S ribosomal protein S18",0.47
same,fold_change,"gene rpsT, 30S ribosomal protein S20",0.44
same,fold_change,"gene sdhB, succinate dehydrogenase iron-sulfur subunit",0.41
same,fold_change,"gene trmD, tRNA (guanine-N(1)-)-methyltransferase",0.44
same,fold_change,"gene trpD, anthranilate phosphoribosyltransferase",0.4
same,fold_change,"gene trpS, tryptophanyl-tRNA synthetase",0.47
same,fold_change,"gene tyrA, prephenate dehydrogenase",0.41
same,fold_change dps,general stress protein 20U,6.95
same,fold_change Sca_1447,glycosyltransferase,3.57
same,fold_change Sca_0051,glyoxalase/bleomycin resistance protein/dioxygenase superfamily protein,6.15
same,fold_change Sca_0808,glyoxalase/bleomycin resistance protein/dioxygenase superfamily protein (fragment 2),2.14
same,fold_change gloA,glyoxylase family protein,3.75
same,fold_change grpE,heat shock protein GrpE,2.94
same,fold_change vraS,histidine kinase sensor,7.95
same,fold_change Sca_0031,hypothetical protein,3.09
same,fold_change Sca_0046,hypothetical protein,2.17
same,fold_change Sca_0052,hypothetical protein,5.71
same,fold_change Sca_0054,hypothetical protein,2.52
same,fold_change Sca_0067,hypothetical protein,4.42
same,fold_change Sca_0071,hypothetical protein,7.07
same,fold_change Sca_0072,hypothetical protein,7.15
same,fold_change Sca_0096,hypothetical protein,3.48
same,fold_change Sca_0097,hypothetical protein,2.35
same,fold_change Sca_0098,hypothetical protein,2.28
same,fold_change Sca_0100,hypothetical protein,2.47
same,fold_change Sca_0114,hypothetical protein,3.35
same,fold_change Sca_0117,hypothetical protein,2.03
same,fold_change Sca_0128,hypothetical protein,0.49
same,fold_change Sca_0133,hypothetical protein,2.43
same,fold_change Sca_0179,hypothetical protein,5.25
same,fold_change Sca_0238,hypothetical protein,5.63
same,fold_change Sca_0248,hypothetical protein,3.2
same,fold_change Sca_0264,hypothetical protein,2.54
same,fold_change Sca_0265,hypothetical protein,3.04
same,fold_change Sca_0279,hypothetical protein,2.02
same,fold_change Sca_0299,hypothetical protein,4.24
same,fold_change Sca_0324,hypothetical protein,2.17
same,fold_change Sca_0328,hypothetical protein,6.61
same,fold_change Sca_0329,hypothetical protein,5.2
same,fold_change Sca_0356,hypothetical protein,4.74
same,fold_change Sca_0422,hypothetical protein,2.12
same,fold_change Sca_0454,hypothetical protein,3.4
same,fold_change Sca_0459,hypothetical protein,3.3
same,fold_change Sca_0468,hypothetical protein,2.78
same,fold_change Sca_0471,hypothetical protein,4
same,fold_change Sca_0472,hypothetical protein,3.68
same,fold_change Sca_0473,hypothetical protein,4.68
same,fold_change Sca_0474,hypothetical protein,4.61
same,fold_change Sca_0477,hypothetical protein,4.52
same,fold_change Sca_0478,hypothetical protein,3.97
same,fold_change Sca_0481,hypothetical protein,4.58
same,fold_change Sca_0482,hypothetical protein,3.77
same,fold_change Sca_0483,hypothetical protein,3.93
same,fold_change Sca_0484,hypothetical protein,3.96
same,fold_change Sca_0485,hypothetical protein,3.21
same,fold_change Sca_0487,hypothetical protein,4.14
same,fold_change Sca_0488,hypothetical protein,2.02
same,fold_change Sca_0489,hypothetical protein,2.6
same,fold_change Sca_0490,hypothetical protein,2.76
same,fold_change Sca_0491,hypothetical protein,2.13
same,fold_change Sca_0525,hypothetical protein,2.45
same,fold_change Sca_0529,hypothetical protein,2.16
same,fold_change Sca_0643,hypothetical protein,3.47
same,fold_change Sca_0647,hypothetical protein,2.16
same,fold_change Sca_0648,hypothetical protein,2.05
same,fold_change Sca_0666,hypothetical protein,5.78
same,fold_change Sca_0700,hypothetical protein,2.96
same,fold_change Sca_0703,hypothetical protein,5.58
same,fold_change Sca_0752,hypothetical protein,2.97
same,fold_change Sca_0778,hypothetical protein,3.33
same,fold_change Sca_0834,hypothetical protein,3.67
same,fold_change Sca_0844,hypothetical protein,5.22
same,fold_change Sca_0862,hypothetical protein,2.79
same,fold_change Sca_0868,hypothetical protein,2.53
same,fold_change Sca_0877,hypothetical protein,2.02
same,fold_change Sca_0934,hypothetical protein,3.62
same,fold_change Sca_0935,hypothetical protein,2.43
same,fold_change Sca_0959,hypothetical protein,2.05
same,fold_change Sca_0965,hypothetical protein,2.37
same,fold_change Sca_0993,hypothetical protein,2.38
same,fold_change Sca_1021,hypothetical protein,2.3
same,fold_change Sca_1081,hypothetical protein,2.09
same,fold_change Sca_1154,hypothetical protein,2.08
same,fold_change Sca_1155,hypothetical protein,2.03
same,fold_change Sca_1209,hypothetical protein,3.24
same,fold_change Sca_1210,hypothetical protein,2.68
same,fold_change Sca_1212,hypothetical protein,2.1
same,fold_change Sca_1236,hypothetical protein,5.11
same,fold_change Sca_1237,hypothetical protein,5.24
same,fold_change Sca_1261,hypothetical protein,4.39
same,fold_change Sca_1262,hypothetical protein,4.13
same,fold_change Sca_1263,hypothetical protein,3.92
same,fold_change Sca_1265,hypothetical protein,6.01
same,fold_change Sca_1328,hypothetical protein,2.71
same,fold_change Sca_1396,hypothetical protein,2.4
same,fold_change Sca_1420,hypothetical protein,2.04
same,fold_change Sca_1461,hypothetical protein,6.62
same,fold_change Sca_1500,hypothetical protein,2.03
